The subject of the test is P388 leukemia ip, CD2F1 mice, survival T/C. The experiment in a line: NCI In Vivo Anticancer Drug Screen. Data for tumor model P388 Leukemia (intraperitoneal) in CD2F1 (CDF1) mice. The conditions noted are these: endpoint: median survival time, higher = longer survival. The gist of the method:
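Mice carrying the transplanted tumor received test compound or vehicle. Survival was recorded in each group, and the value is the treated-group measurement divided by that of the vehicle-treated control group.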

[1] abbreviates: dose: 100.0 mg/kg/injection, schedule: Q01DX001 (ip), vehicle: suspension in saline.
[2] abbreviates: dose: 60.0 mg/kg/injection, schedule: Q01DX005 (ip), vehicle: saline with Tween-80.
Where [3] appears, read: dose: 120.0 mg/kg/injection, schedule: Q01DX005 (ip), vehicle: saline with Tween-80.
The mark [4] stands for this setting: dose: 240.0 mg/kg/injection, schedule: Q01DX005 (ip), vehicle: saline with Tween-80.
Setting [5] is: dose: 12.5 mg/kg/injection, schedule: Q01DX009 (ip), vehicle: saline with Tween-80.
Where [6] appears, read: dose: 50.0 mg/kg/injection, schedule: Q01DX009 (ip), vehicle: saline with Tween-80.
Setting [7] is: dose: 50.0 mg/kg/injection, schedule: Q01DX005 (ip), vehicle: saline.
Where [8] appears, read: dose: 60.0 mg/kg/injection, schedule: Q01DX005 (ip), vehicle: saline.
[9] abbreviates: dose: 120.0 mg/kg/injection, schedule: Q01DX005 (ip), vehicle: saline.
Where [10] appears, read: dose: 240.0 mg/kg/injection, schedule: Q01DX005 (ip), vehicle: saline.
The mark [11] stands for this setting: dose: 100.0 mg/kg/injection, schedule: Q01DX009 (ip), vehicle: saline with Tween-80.
The mark [12] stands for this setting: dose: 200.0 mg/kg/injection, schedule: Q01DX009 (ip), vehicle: saline with Tween-80.
Where [13] appears, read: dose: 50.0 mg/kg/injection, schedule: Q01DX009 (ip), vehicle: Klucel (hydroxypropylcellulose) (HPC).
The mark [14] stands for this setting: dose: 50.0 mg/kg/injection, schedule: Q01DX009 (ip), vehicle: saline.
[15] abbreviates: dose: 100.0 mg/kg/injection, schedule: Q01DX009 (ip), vehicle: saline.

T/C data for 27 compounds are collected here from PubChem BioAssay AID330 (DTP/NCI, 2004).

Where “and” joins values, the source holds several entries; their conditions need not be identical. Identical values can stand only once. Toxic doses and inconclusive results are not listed.

Consider `OCc1nc(-c2ccccc2)sc1-c1cnc2ccccc2n1`, for which the T/C (dose: 100.0 mg/kg/injection, schedule: Q04DX002 (ip), vehicle: Klucel (hydroxypropylcellulose) (HPC)) is 104 % of control; the T/C (dose: 200.0 mg/kg/injection, schedule: Q04DX002 (ip), vehicle: Klucel (hydroxypropylcellulose) (HPC)) is 99 % of control; the T/C (dose: 400.0 mg/kg/injection, schedule: Q04DX002 (ip), vehicle: Klucel (hydroxypropylcellulose) (HPC)) is 101 % of control.

In the case of `CCC1(O)CN2CCc3c([nH]c4ccccc34)C(C(=O)OC)(c3cc4c(cc3OC)N(C)C3C(O)(C(=O)OC)C(OC(C)=O)C5(CC)C=CCN6CCC43C65)CC(C2=O)C1O` (stereo unspecified), the T/C runs as follows: (dose: 25.0 mg/kg/injection, schedule: Q01DX001 (ip), vehicle: distilled water + Tween-80) 107 % of control; (dose: 25.0 mg/kg/injection, schedule: Q01DX001 (ip), vehicle: suspension in saline) 104 % of control; (dose: 50.0 mg/kg/injection, schedule: Q01DX001 (ip), vehicle: suspension in saline) 110 % of control; under setting [1], 120 % of control; (dose: 200.0 mg/kg/injection, schedule: Q01DX001 (ip), vehicle: distilled water + Tween-80) 154 % of control.

For the compound `COc1ccc(NS(=O)(=O)c2ccc(NCc3c4ccccc4nc4cc(Cl)ccc34)cc2)nn1`, the T/C is 98 % of control under setting [2], 94 % of control under setting [3] and 94 % of control under setting [4].

As for `N#C/C(=C\c1ccco1)C(=O)c1ccco1`, the T/C is 112 % of control under setting [5]; 95 % of control (dose: 25.0 mg/kg/injection, schedule: Q01DX009 (ip), vehicle: saline with Tween-80); 89 % of control and 97 % of control under setting [6].

In the case of `N/C=N/OCc1ccccc1`, the T/C is, setting by setting: under setting [7], 101 % of control; (dose: 100.0 mg/kg/injection, schedule: Q01DX005 (ip), vehicle: saline) 104 % of control; (dose: 200.0 mg/kg/injection, schedule: Q01DX005 (ip), vehicle: saline) 105 % of control.

Turning to `C[N+](C)(C)NP(=O)(N[N+](C)(C)C)c1ccccc1`, the T/C was 100 % of control under setting [8], 106 % of control under setting [9] and 100 % of control under setting [10].

Regarding `Nc1ccncc1C(=O)O`, the T/C under setting [6] is 99 % of control, the T/C under setting [11] is 99 % of control and the T/C under setting [12] is 96 % of control.

As for `Nc1ccn(C2OC(C(OC3OC(CO)C(O)C(N)C3O)C(O)C(O)C(O)C(O)CO)C(N)C(O)C2O)c(=O)n1` (stereo unspecified), the T/C (dose: 0.1 mg/kg/injection, schedule: Q01DX005 (ip), vehicle: saline) is 100 % of control; the T/C (dose: 0.2 mg/kg/injection, schedule: Q01DX005 (ip), vehicle: saline) is 102 % of control; the T/C (dose: 0.4 mg/kg/injection, schedule: Q01DX005 (ip), vehicle: saline) is 107 % of control; the T/C (dose: 0.8 mg/kg/injection, schedule: Q01DX005 (ip), vehicle: saline) is 102 % of control.

With `CC(C)C1=C2C3CC(O)C(C=O)=CC(=O)C3(C)CCC2(C)CC1` (stereo unspecified), the T/C reads like this: (dose: 6.25 mg/kg/injection, schedule: Q01DX009 (ip), vehicle: saline + alcohol) 112 % of control; (dose: 12.5 mg/kg/injection, schedule: Q01DX009 (ip), vehicle: saline + alcohol) 110 % of control; (dose: 25.0 mg/kg/injection, schedule: Q01DX009 (ip), vehicle: saline + alcohol) 108 % of control.

With `C=CC(=NC(C)(C)C)Nc1ccc(OC)cc1`, the T/C runs as follows: under setting [6], 112 % of control; under setting [11], 112 % of control.

For `CC(C)=NNC1=NC(C)(C)P(=O)(NCC(=O)O)S1` (stereo unspecified), the T/C is, setting by setting: under setting [8], 103 % of control; under setting [9], 103 % of control; under setting [10], 100 % of control.

On to `CCCCCCN(CCCCCC)C(=N)c1ccnc2ccccc12`, for which the T/C is 92 % of control (dose: 12.5 mg/kg/injection, schedule: Q01DX005 (ip), vehicle: saline); 100 % of control (dose: 25.0 mg/kg/injection, schedule: Q01DX005 (ip), vehicle: saline); 87 % of control and 94 % of control under setting [7].

As for `O=[N+]([O-])c1ccc([O-])c([I+]c2ccccc2)c1`, the T/C runs as follows: (dose: 12.5 mg/kg/injection, schedule: Q01DX009 (ip), vehicle: Klucel (hydroxypropylcellulose) (HPC)) 94 % of control; (dose: 25.0 mg/kg/injection, schedule: Q01DX009 (ip), vehicle: Klucel (hydroxypropylcellulose) (HPC)) 96 % of control; under setting [13], 89 % of control and 94 % of control.

Regarding `CC(C)(C)OOC(=O)C1CCCCC1`, the T/C by setting is: under setting [2], 100 % of control; under setting [3], 103 % of control; under setting [4], 92 % of control.

In the case of `N/C(=N\O)c1c(Br)n(C2OC(CO)C(O)C2O)c2ncnc(N)c12` (stereo unspecified), the T/C by setting is: under setting [2], 109 % of control and 122 % of control; under setting [3], 120 % of control and 122 % of control; under setting [4], 116 % of control; (dose: 480.0 mg/kg/injection, schedule: Q01DX005 (ip), vehicle: saline with Tween-80) 114 % of control.

Turning to `CC1(C)N=C(N)N=C(N)N1c1ccc(CCCCc2ccc(S(=O)(=O)F)cc2)cc1`, the T/C reads like this: (dose: 12.0 mg/kg/injection, schedule: Q01DX009 (ip), vehicle: saline sonified) 152 % of control; (dose: 18.0 mg/kg/injection, schedule: Q01DX009 (ip), vehicle: saline sonified) 152 % of control; under setting [6], 95 % of control; (dose: 50.0 mg/kg/injection, schedule: Q04DX003 (ip), vehicle: saline with Tween-80) 100 % of control.

Consider `CCN(CC)CCn1cnc(C#N)c1N`, for which the T/C was 101 % of control under setting [14]; 100 % of control under setting [15]; 108 % of control (dose: 200.0 mg/kg/injection, schedule: Q01DX009 (ip), vehicle: saline).

Regarding `O=c1[nH]cc(Cn2cnc3ncccc3c2=O)c(=O)[nH]1`, the T/C was 93 % of control under setting [1]; 105 % of control (dose: 200.0 mg/kg/injection, schedule: Q01DX001 (ip), vehicle: suspension in saline); 112 % of control (dose: 400.0 mg/kg/injection, schedule: Q01DX001 (ip), vehicle: suspension in saline).

`CC(C)NCCO`: the T/C was 100 % of control under setting [14]; 100 % of control (dose: 50.0 mg/kg/injection, schedule: Q04DX003 (ip), vehicle: saline); 109 % of control (dose: 100.0 mg/kg/injection, schedule: Q04DX003 (ip), vehicle: saline); 109 % of control (dose: 200.0 mg/kg/injection, schedule: Q04DX003 (ip), vehicle: saline).

Take `Nc1nc(=O)[nH]s1`: the T/C is, setting by setting: (dose: 6.25 mg/kg/injection, schedule: Q01DX009 (ip), vehicle: saline with Tween-80) 98 % of control; under setting [5], 87 % of control and 94 % of control; under setting [11], 95 % of control; under setting [12], 90 % of control.

In the case of `O=C(Nc1cc(NC(=O)n2nnc3ccccc32)c(Br)cc1Br)n1nnc2ccccc21`, the T/C under setting [13] was 91 % of control; the T/C (dose: 100.0 mg/kg/injection, schedule: Q01DX009 (ip), vehicle: Klucel (hydroxypropylcellulose) (HPC)) is 89 % of control; the T/C (dose: 200.0 mg/kg/injection, schedule: Q01DX009 (ip), vehicle: Klucel (hydroxypropylcellulose) (HPC)) is 97 % of control.

Take `C=CCC1(OC(C)=O)CC2C(=O)C(=O)C(C1)N2OC(=O)c1ccccc1` (stereo unspecified): the T/C was 100 % of control (dose: 50.0 mg/kg/injection, schedule: Q01DX005 (ip), vehicle: Klucel (hydroxypropylcellulose) (HPC)); 87 % of control (dose: 100.0 mg/kg/injection, schedule: Q01DX005 (ip), vehicle: Klucel (hydroxypropylcellulose) (HPC)); 94 % of control (dose: 200.0 mg/kg/injection, schedule: Q01DX005 (ip), vehicle: Klucel (hydroxypropylcellulose) (HPC)).

Consider `CCCc1[nH]nc(-c2n[nH]c(CCC)c2CC)c1CC`, for which the T/C is 101 % of control under setting [2], 93 % of control under setting [3] and 110 % of control under setting [4].

For the compound `Cn1cnc([N+](=O)[O-])c1S(N)(=O)=O`, the T/C under setting [11] is 88 % of control and the T/C under setting [12] is 123 % of control.

Consider `COc1ccc(CCN2C(=O)NC(=O)C2=O)cc1OC`, for which the T/C runs as follows: under setting [2], 97 % of control; under setting [3], 101 % of control; under setting [4], 97 % of control.

As for `Nc1ncncc1-c1ccc(F)cc1`, the T/C under setting [14] is 103 % of control and the T/C under setting [15] is 101 % of control.

Consider `Cc1c(NC(=O)CCl)c(=O)oc2c(C)c3occc(=O)c3cc12`, for which the T/C runs as follows: (dose: 30.0 mg/kg/injection, schedule: Q01DX005 (ip), vehicle: saline with Tween-80) 100 % of control; under setting [2], 89 % of control and 97 % of control; under setting [3], 90 % of control; under setting [4], 99 % of control.
